Data: ChEMBL document CHEMBL6092200, “Structure-guided inhibitor design targeting CntL provides the first chemical validation of the staphylopine metallophore system in bacterial metal acquisition” (Eur J Med Chem, 2024)
Calls of active or inactive are those of the source. The rule behind the calls is not given here.

How the values were obtained:
[1] = target: T1, D-histidine 2-aminobutanoyltransferase (Staphylococcus aureus (strain Mu50 / ATCC 700699)) (UniProt A0A0H3JXA8); assay: Induction of thermal stabilization of Staphylococcus aureus ATCC 700699 CntL assessed as change in melting temperature by fluorescence-based thermal shift assay
T1 sequence (whole entry): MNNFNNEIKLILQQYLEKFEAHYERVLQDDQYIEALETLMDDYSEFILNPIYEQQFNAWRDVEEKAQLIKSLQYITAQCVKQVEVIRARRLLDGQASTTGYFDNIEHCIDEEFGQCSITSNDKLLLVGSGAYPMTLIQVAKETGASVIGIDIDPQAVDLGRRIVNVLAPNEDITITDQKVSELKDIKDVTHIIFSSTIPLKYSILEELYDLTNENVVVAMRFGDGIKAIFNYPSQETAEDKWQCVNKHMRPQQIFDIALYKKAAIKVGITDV

[2] = target: T1, D-histidine 2-aminobutanoyltransferase (Staphylococcus aureus (strain Mu50 / ATCC 700699)); assay: Induction of thermal stabilization of Staphylococcus aureus ATCC 700699 CntL assessed as change in melting temperature at 100 uM by fluorescence-based thermal shift assay
[3] = target: T1, D-histidine 2-aminobutanoyltransferase (Staphylococcus aureus (strain Mu50 / ATCC 700699)); assay: Inhibition of N-terminal his6-tagged Staphylococcus aureus ATCC 700699 CntL at 5 uM using SAM as substrate preincubated with compound for 10 mins followed by substrate addition and measured after 25 mins in presence of NADPH by microplate reader analysis relative to control; conditions: time 35.0 min
[4] = target: T1, D-histidine 2-aminobutanoyltransferase (Staphylococcus aureus (strain Mu50 / ATCC 700699)); assay: Binding affinity to N-terminal his6-tagged Staphylococcus aureus ATCC 700699 CntL assessed as change in enthalpy by ITC analysis
[5] = target: T2, D-histidine 2-aminobutanoyltransferase (Staphylococcus aureus (strain Mu50 / ATCC 700699), UniProt A0A0H3JXA8); assay: Binding affinity to N-terminal his6-tagged Staphylococcus aureus ATCC 700699 CntL assessed as dissociation constant by ITC analysis
T2 sequence (A0A0H3JXA8 whole entry): T1 sequence (whole entry)

[6] = target: T3, L-histidine 2-aminobutanoyltransferase (Pseudomonas aeruginosa) (UniProt Q9HUX4); assay: Binding affinity to N-terminal his6-tagged Pseudomonas aeruginosa CntL assessed as change in gibbs free energy by ITC analysis
T3 sequence (whole entry): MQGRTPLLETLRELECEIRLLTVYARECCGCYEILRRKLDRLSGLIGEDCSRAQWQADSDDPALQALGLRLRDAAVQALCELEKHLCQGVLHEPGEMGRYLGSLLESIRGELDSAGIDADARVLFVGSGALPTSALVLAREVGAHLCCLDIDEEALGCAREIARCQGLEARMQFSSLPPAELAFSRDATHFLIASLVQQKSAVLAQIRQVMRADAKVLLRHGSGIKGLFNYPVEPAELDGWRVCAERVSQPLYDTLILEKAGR

[7] = target: T4, L-histidine 2-aminobutanoyltransferase (Pseudomonas aeruginosa, UniProt Q9HUX4); assay: Binding affinity to N-terminal his6-tagged Pseudomonas aeruginosa CntL assessed as dissociation constant by ITC analysis
T4 sequence (Q9HUX4 whole entry): T3 sequence (whole entry)

[8] = target: T1, D-histidine 2-aminobutanoyltransferase (Staphylococcus aureus (strain Mu50 / ATCC 700699)); assay: Binding affinity to N-terminal his6-tagged Staphylococcus aureus ATCC 700699 CntL assessed as change in entropy by ITC analysis
[9] = target: T3, L-histidine 2-aminobutanoyltransferase (Pseudomonas aeruginosa); assay: Binding affinity to N-terminal his6-tagged Pseudomonas aeruginosa CntL assessed as change in entropy by ITC analysis
[10] = target: T1, D-histidine 2-aminobutanoyltransferase (Staphylococcus aureus (strain Mu50 / ATCC 700699)); assay: Binding affinity to N-terminal his6-tagged Staphylococcus aureus ATCC 700699 CntL assessed as gibbs free energy change by ITC analysis
[11] = target: T1, D-histidine 2-aminobutanoyltransferase (Staphylococcus aureus (strain Mu50 / ATCC 700699)); assay: Induction of thermal stabilization of Staphylococcus aureus ATCC 700699 CntL assessed as melting temperature in presence of xNA by fluorescence-based thermal shift assay
[12] = target: T3, L-histidine 2-aminobutanoyltransferase (Pseudomonas aeruginosa); assay: Binding affinity to N-terminal his6-tagged Pseudomonas aeruginosa CntL assessed as change in enthalpy by ITC analysis
[13] = target: T1, D-histidine 2-aminobutanoyltransferase (Staphylococcus aureus (strain Mu50 / ATCC 700699)); assay: Induction of thermal stabilization of Staphylococcus aureus ATCC 700699 CntL assessed as melting temperature in presence of L-His by fluorescence-based thermal shift assay
[14] = target: T1, D-histidine 2-aminobutanoyltransferase (Staphylococcus aureus (strain Mu50 / ATCC 700699)); assay: Induction of thermal stabilization of Staphylococcus aureus ATCC 700699 CntL assessed as melting temperature by fluorescence-based thermal shift assay
[15] = target: T1, D-histidine 2-aminobutanoyltransferase (Staphylococcus aureus (strain Mu50 / ATCC 700699)); assay: Induction of thermal stabilization of Staphylococcus aureus ATCC 700699 CntL assessed as change in melting temperature in presence of histidine by fluorescence-based thermal shift assay
[16] = target: T1, D-histidine 2-aminobutanoyltransferase (Staphylococcus aureus (strain Mu50 / ATCC 700699)); assay: Induction of thermal stabilization of Staphylococcus aureus ATCC 700699 CntL assessed as melting temperature in presence of D-His by fluorescence-based thermal shift assay
[17] = target: T2, D-histidine 2-aminobutanoyltransferase; assay: Inhibition of N-terminal his6-tagged Staphylococcus aureus ATCC 700699 CntL using SAM as substrate preincubated with compound for 10 mins followed by substrate addition and measured after 25 mins in presence of NADPH by microplate reader analysis
[18] = target: T3, L-histidine 2-aminobutanoyltransferase (Pseudomonas aeruginosa); assay: Induction of thermal stabilization of N-terminal his6-tagged Pseudomonas aeruginosa CntL assessed as increase in melting temperature at 500 uM by fluorescence-based thermal shift assay
Staphylococcus aureus [19] = assay: Antibacterial activity against Staphylococcus aureus […] assessed as effect on bacterial growth at 100 uM incubated for 12 hrs in presence of LB medium; type: functional, organism-based
Staphylococcus aureus [20] = assay: Antibacterial activity against Staphylococcus aureus […] assessed as effect on bacterial growth at 100 uM incubated for 12 hrs in presence of chemically defined medium; type: functional, organism-based
[21] = target: T1, D-histidine 2-aminobutanoyltransferase (Staphylococcus aureus (strain Mu50 / ATCC 700699)); assay: Inhibition of N-terminal his6-tagged Staphylococcus aureus ATCC 700699 CntL assessed as reduction in intracellular cobalt ion level at 100 uM by ICP-MS analysis; type: cell-based
[22] = target: T1, D-histidine 2-aminobutanoyltransferase (Staphylococcus aureus (strain Mu50 / ATCC 700699)); assay: Inhibition of N-terminal his6-tagged Staphylococcus aureus ATCC 700699 CntL assessed as reduction in intracellular iron level at 100 uM by ICP-MS analysis; type: cell-based
[23] = target: T1, D-histidine 2-aminobutanoyltransferase (Staphylococcus aureus (strain Mu50 / ATCC 700699)); assay: Inhibition of N-terminal his6-tagged Staphylococcus aureus ATCC 700699 CntL assessed as reduction in intracellular nickel ion level at 100 uM by ICP-MS analysis; type: cell-based
Staphylococcus aureus [24] = assay: Antibacterial activity against Staphylococcus aureus […] assessed as effect on bacterial growth at 100 uM incubated for 12 hrs in presence of dCDM medium; type: functional, organism-based

Row | SMILES | ΔTm [1] | ΔTm [2] | inhibition [3] | deltaH [4] | Kd [5] | deltaG [6] | Kd [7] | -TdeltaS [8] | -TdeltaS [9] | deltaG [10] | deltaH [12] | IC50 [17] | Activity [18] | other results
1 | COc1nc(N)c2ncn([C@@H]3O[C@H](CSCCCN[C@@H](Cc4c[nH]cn4)C(=O)O)[C@@H](O)[C@H]3O)c2n1 | 4.7 °C |  |  |  |  |  |  |  |  |  |  |  |  | 
2 | Nc1ncnc2c1ncn2[C@@H]1O[C@H](CSCCC(=O)N[C@@H](Cc2c[nH]cn2)C(=O)O)[C@@H](O)[C@H]1O |  | 1.7 °C | < 20% |  |  |  |  |  |  |  |  |  |  | 
3 | CSC[C@H]1O[C@@H](n2cnc3c(N)ncnc32)[C@H](O)[C@@H]1O [METHYLTHIOADENOSINE] |  |  |  | -97.5 kJ/mol | 10.9 µM | -27.4 kJ/mol | 15.5 µM | 68.6 kJ/mol | 0.326 kJ/mol | -28.6 kJ/mol | -27.7 kJ/mol |  |  | Tm [11]: 59.3 °C; Tm [13]: 59 °C; Tm [14]: 56.3 °C; ΔTm [15]: 3.4 °C; Tm [16]: 59 °C
4 | Nc1ncnc2c1ncn2[C@@H]1O[C@H](CSCCCN[C@@H](Cc2c[nH]cn2)C(=O)O)[C@@H](O)[C@H]1O | 0.7 °C | 7.7 °C | 96% | -76.6 kJ/mol | 0.18 µM | -35.5 kJ/mol | 0.6 µM | 37.9 kJ/mol | 0.623 kJ/mol | -38.5 kJ/mol | -36.2 kJ/mol | 0.12 µM | Active | 
5 | Nc1nc(Cl)nc2c1ncn2[C@@H]1O[C@H](CSCCCNC(Cc2c[nH]cn2)C(=O)O)[C@@H](O)[C@H]1O (single isomer, unassigned) | 8.4 °C |  |  |  |  |  |  |  |  |  |  |  | Active | 
6 | Nc1nc(Cl)nc2c1ncn2[C@@H]1O[C@H](CSCCN[C@@H](Cc2c[nH]cn2)C(=O)O)[C@@H](O)[C@H]1O | 9.4 °C |  |  | -45.6 kJ/mol | 0.021 µM |  |  | 1.87 kJ/mol |  | -43.9 kJ/mol |  | ~0.06 µM | Active | Activity (Staphylococcus aureus [19]): inactive; Activity (Staphylococcus aureus [20]): inactive; inhibition [21]: Active; inhibition [22]: Active; inhibition [23]: Active; Activity (Staphylococcus aureus [24]): inactive
7 | Nc1ncnc2c1ncn2[C@@H]1O[C@H](CSCCCNC(=O)[C@H](N)Cc2c[nH]cn2)[C@@H](O)[C@H]1O |  | 0.7 °C | < 20% |  |  |  |  |  |  |  |  |  |  | 
8 | Nc1ncnc2c1ncn2[C@@H]1O[C@H](CSCCN[C@@H](Cc2c[nH]cn2)C(=O)O)[C@@H](O)[C@H]1O | 1 °C | 8.4 °C | 92% | -74.5 kJ/mol | 0.041 µM | -38.1 kJ/mol | 0.22 µM | 32.3 kJ/mol | -20.3 kJ/mol | -42.3 kJ/mol | -17.8 kJ/mol | 0.06 µM | Active | 
